Test results published in the kinase profiling compilation of Christmann-Franck et al. (2016).

How the values were obtained:
Test in all cases: radiometric filter-binding kinase assay, Kinase HotSpot
Conditions in all cases: compound 0.5 µM; ATP 10 µM
WNK2 (human) = WNK2 (human) (UniProt Q9Y3S1)
NTRK3 (human) = NTRK3 (human) (UniProt Q16288)
MARK1 (human) = MARK1 (human) (UniProt Q9P0L2)
PHKG2 (human) = PHKG2 (human) (UniProt P15735)
IKBKB (human) = IKBKB (human) (UniProt O14920)
PAK4 (human) = PAK4 (human) (UniProt O96013)
MELK (human) = MELK (human) (UniProt Q14680)
CDC42BPA (human) = CDC42BPA (human) (UniProt Q5VT25)
MAPKAPK2 (human) = MAPKAPK2 (human) (UniProt P49137)
PRKCH (human) = PRKCH (human) (UniProt P24723)
RPS6KA1 KD1 KD2 (human) = RPS6KA1 KD1 KD2 (human) (UniProt Q15418)
MAP2K1 (human) = MAP2K1 (human) (UniProt Q02750)
PAK2 (human) = PAK2 (human) (UniProt Q13177)
Sequence of PAK2 (human) (Q13177 whole entry, looked up): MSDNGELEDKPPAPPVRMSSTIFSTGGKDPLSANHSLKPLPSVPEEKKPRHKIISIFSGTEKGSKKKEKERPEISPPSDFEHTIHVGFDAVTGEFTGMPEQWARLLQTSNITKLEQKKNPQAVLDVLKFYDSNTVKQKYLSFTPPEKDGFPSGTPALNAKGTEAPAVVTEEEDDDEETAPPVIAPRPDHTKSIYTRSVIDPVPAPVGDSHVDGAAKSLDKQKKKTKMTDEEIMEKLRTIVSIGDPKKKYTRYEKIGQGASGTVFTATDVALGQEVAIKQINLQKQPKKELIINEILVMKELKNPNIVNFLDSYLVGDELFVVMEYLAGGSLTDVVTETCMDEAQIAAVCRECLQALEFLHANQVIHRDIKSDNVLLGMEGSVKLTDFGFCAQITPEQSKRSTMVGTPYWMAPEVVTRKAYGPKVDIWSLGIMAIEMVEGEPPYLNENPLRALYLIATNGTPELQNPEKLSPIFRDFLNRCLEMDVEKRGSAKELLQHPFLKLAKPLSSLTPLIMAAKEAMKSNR

DDR2 (human) = DDR2 (human) (UniProt Q16832)
MARK2 (human) = MARK2 (human) (UniProt Q7KZI7)
STK17A (human) = STK17A (human) (UniProt Q9UEE5)
NEK2 (human) = NEK2 (human) (UniProt P51955)
MKNK2 (human) = MKNK2 (human) (UniProt Q9HBH9)
Sequence of MKNK2 (human) (Q9HBH9 whole entry, looked up): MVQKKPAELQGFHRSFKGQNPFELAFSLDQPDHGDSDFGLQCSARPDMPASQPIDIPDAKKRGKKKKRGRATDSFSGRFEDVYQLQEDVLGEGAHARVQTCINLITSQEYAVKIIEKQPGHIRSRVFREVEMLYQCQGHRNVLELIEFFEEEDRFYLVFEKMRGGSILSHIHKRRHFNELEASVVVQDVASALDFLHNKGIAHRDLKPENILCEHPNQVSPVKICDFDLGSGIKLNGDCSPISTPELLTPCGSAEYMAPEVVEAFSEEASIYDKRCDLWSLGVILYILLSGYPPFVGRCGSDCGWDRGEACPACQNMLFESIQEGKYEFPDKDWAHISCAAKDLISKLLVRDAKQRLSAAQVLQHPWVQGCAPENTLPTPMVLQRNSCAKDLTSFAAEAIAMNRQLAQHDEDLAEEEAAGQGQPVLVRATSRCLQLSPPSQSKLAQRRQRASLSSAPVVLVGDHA

PRKCE (human) = PRKCE (human) (UniProt Q02156)
MAP3K2 (human) = MAP3K2 (human) (UniProt Q9Y2U5)
SIK2 (human) = SIK2 (human) (UniProt Q9H0K1)
AKT1 (human) = AKT1 (human) (UniProt P31749)
Sequence of AKT1 (human) (P31749 whole entry, looked up): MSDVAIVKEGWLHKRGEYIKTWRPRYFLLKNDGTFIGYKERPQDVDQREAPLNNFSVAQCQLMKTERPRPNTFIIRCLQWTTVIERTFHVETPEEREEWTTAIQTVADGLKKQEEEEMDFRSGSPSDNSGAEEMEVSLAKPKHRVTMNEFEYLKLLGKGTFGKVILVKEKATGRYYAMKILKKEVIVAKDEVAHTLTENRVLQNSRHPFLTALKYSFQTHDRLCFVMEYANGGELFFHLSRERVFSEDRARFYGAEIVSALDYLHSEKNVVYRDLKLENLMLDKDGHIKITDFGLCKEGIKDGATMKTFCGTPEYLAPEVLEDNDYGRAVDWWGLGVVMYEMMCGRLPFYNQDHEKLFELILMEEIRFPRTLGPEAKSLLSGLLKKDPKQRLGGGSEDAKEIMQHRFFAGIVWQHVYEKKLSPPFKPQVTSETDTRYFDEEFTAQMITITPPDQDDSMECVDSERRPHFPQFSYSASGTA

[1] = molecular target: TYK2 JH1 catalytic (human) (UniProt P29597)
MAP3K7 TAB1 (human) = MAP3K7 TAB1 (human) (UniProt O43318+Q15750)
ROCK1 (human) = ROCK1 (human) (UniProt Q13464)
MATK (human) = MATK (human) (UniProt P42679)
BRSK2 (human) = BRSK2 (human) (UniProt Q8IWQ3)
CDK4 CCND3 (human) = CDK4 CCND3 (human) (UniProt P30281+P11802)
Sequence of CDK4 CCND3 (human) (P11802 whole entry, looked up): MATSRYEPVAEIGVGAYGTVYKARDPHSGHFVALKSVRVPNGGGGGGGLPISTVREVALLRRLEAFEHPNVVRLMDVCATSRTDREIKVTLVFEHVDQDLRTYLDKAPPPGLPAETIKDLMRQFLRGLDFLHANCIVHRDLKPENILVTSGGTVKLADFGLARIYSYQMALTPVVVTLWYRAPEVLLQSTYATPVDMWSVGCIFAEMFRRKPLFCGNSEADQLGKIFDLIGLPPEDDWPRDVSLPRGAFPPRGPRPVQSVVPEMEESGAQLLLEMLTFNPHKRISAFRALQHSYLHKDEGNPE
Sequence of CDK4 CCND3 (human) (P30281 whole entry, looked up): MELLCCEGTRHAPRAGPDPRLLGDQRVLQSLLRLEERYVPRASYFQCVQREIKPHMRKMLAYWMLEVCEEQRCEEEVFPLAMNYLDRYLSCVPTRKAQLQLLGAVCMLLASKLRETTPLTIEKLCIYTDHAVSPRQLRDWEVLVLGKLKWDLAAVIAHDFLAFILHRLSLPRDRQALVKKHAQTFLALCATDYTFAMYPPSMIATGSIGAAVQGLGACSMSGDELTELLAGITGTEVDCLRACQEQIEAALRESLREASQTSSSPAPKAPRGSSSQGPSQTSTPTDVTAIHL

PAK7 (human) = PAK7 (human) (UniProt Q9P286)
ABL2 (human) = ABL2 (human) (UniProt P42684)
RPS6KB1 (human) = RPS6KB1 (human) (UniProt P23443)
YES1 (human) = YES1 (human) (UniProt P07947)
AURKA (human) = AURKA (human) (UniProt O14965)
Sequence of AURKA (human) (O14965 whole entry, looked up): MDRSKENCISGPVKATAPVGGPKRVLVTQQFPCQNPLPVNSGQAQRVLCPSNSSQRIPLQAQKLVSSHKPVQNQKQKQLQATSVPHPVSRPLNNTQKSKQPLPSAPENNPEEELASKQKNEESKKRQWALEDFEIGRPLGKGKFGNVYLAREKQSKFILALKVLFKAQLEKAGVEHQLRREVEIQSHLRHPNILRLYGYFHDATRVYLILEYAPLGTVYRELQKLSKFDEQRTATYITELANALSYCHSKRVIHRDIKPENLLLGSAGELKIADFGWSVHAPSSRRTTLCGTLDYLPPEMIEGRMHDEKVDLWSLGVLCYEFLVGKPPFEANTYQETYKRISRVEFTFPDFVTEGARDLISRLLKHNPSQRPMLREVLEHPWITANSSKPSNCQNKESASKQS

CAMKK2 (human) = CAMKK2 (human) (UniProt Q96RR4)
Sequence of CAMKK2 (human) (Q96RR4 whole entry, looked up): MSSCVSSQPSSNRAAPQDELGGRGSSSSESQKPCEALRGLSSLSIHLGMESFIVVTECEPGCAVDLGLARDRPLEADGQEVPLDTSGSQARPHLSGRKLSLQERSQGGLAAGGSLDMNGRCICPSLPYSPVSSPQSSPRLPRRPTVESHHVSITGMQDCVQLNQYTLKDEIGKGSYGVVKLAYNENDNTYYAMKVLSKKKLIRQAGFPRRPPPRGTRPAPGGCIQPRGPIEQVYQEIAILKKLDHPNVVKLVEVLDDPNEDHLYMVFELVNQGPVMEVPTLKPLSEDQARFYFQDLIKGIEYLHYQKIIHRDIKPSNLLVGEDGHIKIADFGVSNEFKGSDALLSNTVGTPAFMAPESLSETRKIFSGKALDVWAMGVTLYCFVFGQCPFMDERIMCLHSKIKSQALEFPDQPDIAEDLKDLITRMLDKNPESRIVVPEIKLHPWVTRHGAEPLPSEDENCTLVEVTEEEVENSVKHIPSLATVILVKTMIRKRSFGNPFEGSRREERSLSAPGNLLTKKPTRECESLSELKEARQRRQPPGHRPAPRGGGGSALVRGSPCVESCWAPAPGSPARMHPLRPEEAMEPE

PRKD2 (human) = PRKD2 (human) (UniProt Q9BZL6)
CDK4 CCND1 (human) = CDK4 CCND1 (human) (UniProt P24385+P11802)
Sequence of CDK4 CCND1 (human) (P11802 whole entry, looked up): as the sequence (P11802 whole entry, looked up) above
Sequence of CDK4 CCND1 (human) (P24385 whole entry, looked up): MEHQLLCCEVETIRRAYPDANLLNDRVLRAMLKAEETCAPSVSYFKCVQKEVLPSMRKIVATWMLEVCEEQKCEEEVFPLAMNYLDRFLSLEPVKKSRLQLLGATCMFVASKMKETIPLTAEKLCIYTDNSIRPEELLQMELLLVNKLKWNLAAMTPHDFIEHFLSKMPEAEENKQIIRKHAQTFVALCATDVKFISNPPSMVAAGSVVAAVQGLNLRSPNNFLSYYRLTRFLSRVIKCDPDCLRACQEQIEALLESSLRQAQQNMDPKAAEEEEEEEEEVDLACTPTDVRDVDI

STK3 (human) = STK3 (human) (UniProt Q13188)
VRK1 (human) = VRK1 (human) (UniProt Q99986)
CDK2 CCNA2 (human) = CDK2 CCNA2 (human) (UniProt P24941+P20248)
IKBKE (human) = IKBKE (human) (UniProt Q14164)
CAMKK1 (human) = CAMKK1 (human) (UniProt Q8N5S9)

Sequence of NTRK3 (human) (Q16288 whole entry, looked up): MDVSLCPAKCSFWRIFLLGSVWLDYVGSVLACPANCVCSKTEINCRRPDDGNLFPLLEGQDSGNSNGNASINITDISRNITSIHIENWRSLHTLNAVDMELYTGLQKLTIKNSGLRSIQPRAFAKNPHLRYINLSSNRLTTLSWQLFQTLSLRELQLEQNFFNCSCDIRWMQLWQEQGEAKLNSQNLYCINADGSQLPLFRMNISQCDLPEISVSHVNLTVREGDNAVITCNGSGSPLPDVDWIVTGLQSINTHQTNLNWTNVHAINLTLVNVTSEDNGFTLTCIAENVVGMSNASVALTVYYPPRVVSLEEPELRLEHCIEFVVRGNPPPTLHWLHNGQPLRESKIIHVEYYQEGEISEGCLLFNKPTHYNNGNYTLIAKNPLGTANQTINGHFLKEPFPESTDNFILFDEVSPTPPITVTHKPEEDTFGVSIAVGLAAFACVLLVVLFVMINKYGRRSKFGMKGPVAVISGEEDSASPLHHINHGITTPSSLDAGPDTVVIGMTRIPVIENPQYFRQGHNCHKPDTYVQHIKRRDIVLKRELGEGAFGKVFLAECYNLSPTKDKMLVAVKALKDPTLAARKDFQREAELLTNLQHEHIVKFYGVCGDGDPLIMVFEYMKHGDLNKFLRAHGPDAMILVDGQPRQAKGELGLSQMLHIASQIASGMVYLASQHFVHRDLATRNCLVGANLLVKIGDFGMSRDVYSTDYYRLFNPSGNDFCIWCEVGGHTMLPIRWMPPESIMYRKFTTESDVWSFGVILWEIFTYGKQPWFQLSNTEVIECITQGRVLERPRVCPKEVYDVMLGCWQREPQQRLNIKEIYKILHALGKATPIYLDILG
Sequence of IKBKB (human) (O14920 whole entry, looked up): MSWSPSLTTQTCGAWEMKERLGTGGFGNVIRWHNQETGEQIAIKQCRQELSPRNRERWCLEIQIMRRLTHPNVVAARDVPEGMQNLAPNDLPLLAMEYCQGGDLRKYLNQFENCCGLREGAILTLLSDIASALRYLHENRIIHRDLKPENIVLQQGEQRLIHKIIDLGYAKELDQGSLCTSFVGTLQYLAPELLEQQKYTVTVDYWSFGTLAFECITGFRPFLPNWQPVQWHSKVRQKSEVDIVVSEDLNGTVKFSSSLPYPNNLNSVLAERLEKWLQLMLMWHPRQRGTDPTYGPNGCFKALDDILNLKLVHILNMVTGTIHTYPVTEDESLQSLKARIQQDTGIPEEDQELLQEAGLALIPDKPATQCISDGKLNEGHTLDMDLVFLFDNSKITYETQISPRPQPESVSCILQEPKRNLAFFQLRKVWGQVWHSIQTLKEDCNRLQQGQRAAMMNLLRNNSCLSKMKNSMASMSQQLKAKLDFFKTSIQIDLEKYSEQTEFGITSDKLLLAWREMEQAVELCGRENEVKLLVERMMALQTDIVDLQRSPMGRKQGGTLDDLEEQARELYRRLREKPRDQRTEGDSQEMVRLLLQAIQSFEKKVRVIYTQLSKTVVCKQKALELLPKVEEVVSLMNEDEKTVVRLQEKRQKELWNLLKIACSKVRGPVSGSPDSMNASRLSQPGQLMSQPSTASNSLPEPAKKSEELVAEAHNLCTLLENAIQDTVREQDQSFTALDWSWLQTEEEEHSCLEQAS

Row | Structure (SMILES) | residual activity (WNK2 (human)) [%] | residual activity (NTRK3 (human)) [%] | residual activity (MARK1 (human)) [%] | residual activity (PHKG2 (human)) [%] | residual activity (PAK4 (human)) [%] | residual activity (CDC42BPA (human)) [%] | residual activity (MAPKAPK2 (human)) [%] | residual activity (PRKCH (human)) [%] | residual activity (MAP2K1 (human)) [%] | residual activity (PAK2 (human)) [%] | residual activity (DDR2 (human)) [%] | residual activity (MARK2 (human)) [%] | residual activity (STK17A (human)) [%] | residual activity (MKNK2 (human)) [%] | residual activity (PRKCE (human)) [%] | residual activity (MAP3K2 (human)) [%] | residual activity (SIK2 (human)) [%] | residual activity (AKT1 (human)) [%] | residual activity [1] [%] | residual activity (MAP3K7 TAB1 (human)) [%] | also measured
1 | O=C(CCCc1ccc(-c2ccccc2F)cc1)Nc1ccc(O)cc1 | 106 | 96.3 | 96.7 | 102 | 95.4 | 103 | 103 | 84 | 104 | 101 | 98.1 | 91.5 | 101 | 106 | 103 | 89.1 | 102 | 97.7 | 96.5 | 105 | residual activity (IKBKB (human)): 101%; residual activity (MELK (human)): 95.5%; residual activity (RPS6KA1 KD1 KD2 (human)): 102%; residual activity (NEK2 (human)): 90.6%; residual activity (ROCK1 (human)): 106%; residual activity (MATK (human)): 92.2%; residual activity (BRSK2 (human)): 99.2%; residual activity (CDK4 CCND3 (human)): 110%; residual activity (PAK7 (human)): 90.3%; residual activity (ABL2 (human)): 95.3%; residual activity (RPS6KB1 (human)): 102%; residual activity (YES1 (human)): 110%; residual activity (AURKA (human)): 104%; residual activity (CAMKK2 (human)): 86.6%; residual activity (PRKD2 (human)): 97.6%; residual activity (CDK4 CCND1 (human)): 102%; residual activity (STK3 (human)): 94.8%; residual activity (VRK1 (human)): 95.5%; residual activity (CDK2 CCNA2 (human)): 92.7%; residual activity (IKBKE (human)): 98.2%
2 | CCn1cnc2c(Nc3cccc(Cl)c3)nc(N[C@@H]3CCCC[C@@H]3N)nc21 | 94.1 | 23.4 | 93.1 | 85.6 | 84.5 | 93.4 | 94.9 | 77.6 | 92.2 | 93.9 | 97.2 | 90.1 | 98.4 | 93.5 | 90.6 | 91.7 | 89.1 | 108 | 110 | 98.9 | residual activity (MELK (human)): 77%; residual activity (NEK2 (human)): 100%; residual activity (ROCK1 (human)): 96.5%; residual activity (MATK (human)): 88.3%; residual activity (BRSK2 (human)): 94%; residual activity (CDK4 CCND3 (human)): 71.5%; residual activity (PAK7 (human)): 64.7%; residual activity (ABL2 (human)): 65.7%; residual activity (RPS6KB1 (human)): 97.3%; residual activity (YES1 (human)): 35.4%; residual activity (AURKA (human)): 105%; residual activity (CAMKK2 (human)): 86.1%; residual activity (CAMKK1 (human)): 107%; residual activity (CDK4 CCND1 (human)): 89.9%; residual activity (STK3 (human)): 83.9%; residual activity (VRK1 (human)): 103%; residual activity (CDK2 CCNA2 (human)): 23.6%; residual activity (IKBKE (human)): 99.5%
3 | COc1ccc(CNC(=O)Nc2ncc([N+](=O)[O-])s2)cc1 | 104 | 98.7 | 106 | 105 | 115 | 93.7 | 112 | 64.1 | 101 | 102 | 100 | 106 | 91.6 | 95.7 | 92.4 | 94.1 | 89.4 | 102 | 108 | 99.3 | residual activity (IKBKB (human)): 94.9%; residual activity (RPS6KA1 KD1 KD2 (human)): 96.4%; residual activity (NEK2 (human)): 99.1%; residual activity (ROCK1 (human)): 102%; residual activity (MATK (human)): 96.6%; residual activity (BRSK2 (human)): 93.1%; residual activity (CDK4 CCND3 (human)): 94.4%; residual activity (PAK7 (human)): 95.4%; residual activity (ABL2 (human)): 97.9%; residual activity (RPS6KB1 (human)): 85.4%; residual activity (YES1 (human)): 96.1%; residual activity (AURKA (human)): 97.4%; residual activity (CAMKK2 (human)): 92.7%; residual activity (PRKD2 (human)): 97.3%; residual activity (CAMKK1 (human)): 119%; residual activity (CDK4 CCND1 (human)): 97.3%; residual activity (STK3 (human)): 92.6%; residual activity (VRK1 (human)): 95%; residual activity (CDK2 CCNA2 (human)): 93.3%; residual activity (IKBKE (human)): 99.8%
4 | CN([C@@H](Cc1ccc(OS(=O)(=O)c2cccc3cnccc23)cc1)C(=O)N1CCN(c2ccccc2)CC1)S(=O)(=O)c1cccc2cnccc12 | 100 | 97.5 | 96.7 | 101 | 94.6 | 98.9 | 103 | 89.8 | 75.3 | 99.1 | 96.9 | 103 | 104 | 104 | 99.5 | 98.9 | 108 | 102 | 110 | 93.4 | residual activity (IKBKB (human)): 96.7%; residual activity (RPS6KA1 KD1 KD2 (human)): 109%; residual activity (NEK2 (human)): 87.4%; residual activity (ROCK1 (human)): 97.9%; residual activity (MATK (human)): 94.8%; residual activity (BRSK2 (human)): 100%; residual activity (CDK4 CCND3 (human)): 97.8%; residual activity (PAK7 (human)): 103%; residual activity (ABL2 (human)): 98.9%; residual activity (RPS6KB1 (human)): 101%; residual activity (YES1 (human)): 110%; residual activity (AURKA (human)): 86.2%; residual activity (CAMKK2 (human)): 84.2%; residual activity (PRKD2 (human)): 100%; residual activity (CAMKK1 (human)): 108%; residual activity (CDK4 CCND1 (human)): 95.3%; residual activity (STK3 (human)): 98.8%; residual activity (VRK1 (human)): 92.1%; residual activity (CDK2 CCNA2 (human)): 99.8%; residual activity (IKBKE (human)): 92.6%
5 | COc1ccc(OC)c2c(=S)c3ccccc3[nH]c12 | 89.8 | 93.6 | 88.3 | 94.6 | 102 | 82.7 | 94.6 | 86.2 | 91.7 | 104 | 97.1 | 93.9 | 90.3 | 86.2 | 93.3 | 101 | 114 | 89.7 | 108 | 98.8 | residual activity (IKBKB (human)): 103%; residual activity (MELK (human)): 96.6%; residual activity (RPS6KA1 KD1 KD2 (human)): 94.6%; residual activity (ROCK1 (human)): 97.8%; residual activity (MATK (human)): 89.5%; residual activity (BRSK2 (human)): 92.5%; residual activity (CDK4 CCND3 (human)): 95.5%; residual activity (PAK7 (human)): 82.9%; residual activity (ABL2 (human)): 92.5%; residual activity (RPS6KB1 (human)): 99.4%; residual activity (YES1 (human)): 89.2%; residual activity (AURKA (human)): 116%; residual activity (CAMKK2 (human)): 108%; residual activity (PRKD2 (human)): 88.1%; residual activity (CAMKK1 (human)): 108%; residual activity (CDK4 CCND1 (human)): 93.5%; residual activity (STK3 (human)): 104%; residual activity (VRK1 (human)): 100%; residual activity (CDK2 CCNA2 (human)): 88.6%; residual activity (IKBKE (human)): 104%
